For the experiment, the system named is Corticium sasakii. Briefly: Activity against sheath blight on rice caused by Corticium sasakii (protective spray, rice plants cultivar Tai-Nong 67). The experiment is classed as in vivo. To be noted: individual active compound, 11 days after infection. Here is the method: The active compounds, separately or jointly, were prepared as a stock solution with 0.25% by weight of active compound in acetone or DMSO. 1% by weight of the emulsifier Uniperol® EL (wetting agent having emulsifying and dispersing action based on ethoxylated alkylphenols) was added to this solution, and the solution was diluted with water to the desired concentration.
Use Example—Activity Against Sheath Blight on Rice Caused by Corticium sasakii
Pots of rice plants of the cultivar “Tai-Nong 67” were sprayed to runoff point with an aqueous suspension having the concentration of active compound stated below. The next day, oat grains infected with Corticium sasakii were placed into the pots (in each case 5 grains per pot). The plants were then placed in a chamber at 26° C. and maximum atmospheric humidity. After 11 days, the sheath blight on the untreated but infected control plants had developed to such an extent that the infection could be determined visually in %.
Evaluation is carried out by determining the infected leaf areas in percent. These percentages were converted into efficacies.
The efficacy (E) is calculated as follows using Abbot's formula:
E=(1−α/β)·100 • α corresponds to the fungicidal infection of the treated plants in % and • β corresponds to the fungicidal infection of the untreated (control) plants in %
An efficacy of 0 means that the infection level of the treated plants corresponds to that of the untreated control plants; an efficacy of 100 means that the treated plants are not infected.
The expected efficacies of the mixtures of active compounds are determined using Colby's formula [R. S. Colby, Weeds 15, 20-22 (1967)] and compared with the observed efficacies.
E=x+y−x·y/100 • E expected efficacy, expressed in % of the untreated control, when using the mixture of the active compounds A and B at the concentrations a and b • x efficacy, expressed in % of the untreated control, when using active compound A at the concentration a • y efficacy, expressed in % of the untreated control, when using active compound B at the concentration b

Structures are written as SMILES.

This is an account of results in US20080051284A1, “Fungicidal Mixtures for Controlling Rice Pathogens” (BASF AKTIENGESELLSCHAFT, priority 2003, published 2008).

For the compound `CC1CCN(c2c(-c3c(F)cc(F)cc3F)c(Cl)nc3ncnn23)CC1` [I, 5-chloro-7-(4-methylpiperidin-1-yl)-6-(2,4,6-trifluorophenyl)-[1,2,4]tri-azolo[1,5-a]pyrimidine], the “Efficacy in % of the untreated control” value (4 ppm in the spray liquor) turned out to be 34%.
The same measure, in the same setting: as for `CC1CCN(c2c(-c3c(F)cccc3Cl)c(Cl)nc3ncnn23)CC1` [A], the figure is 12%.
On to `N#Cc1c(Cl)c(Cl)c(Cl)c(C#N)c1Cl` [II, 2,4,5,6-tetrachloroisophthalonitrile], for which the “Efficacy in % of the untreated control” value (1 ppm in the spray liquor) turned out to be 0%, the “Efficacy in % of the untreated control” value (4 ppm in the spray liquor) is given as 0% and the “Efficacy in % of the untreated control” value (16 ppm in the spray liquor) was determined as 0%.
For the compound `CC(Nc1c(-c2c(F)cc(F)cc2F)c(Cl)nc2ncnn12)C(F)(F)F` (stereo not drawn) [B], the “Efficacy in % of the untreated control” value (4 ppm in the spray liquor) was determined as 56%.
